For one compound, Km results are on record in article PMC10947850 (Angewandte Chemie (International ed. in English), 2024).

The assay relates to Fub7. Briefly: steady-state kinetics of aldehyde alkylation. In kind it is biochemical. The note with it: co-substrate O-acetyl-L-homoserine; native nucleophile; PLP enzyme.

On to `CCCCCC=O` [n-hexanal], for which the Km stood at 11 mM.

By Km is commonly meant the substrate concentration at which the rate is half of its maximum.
